Consider 19 molecules from ChEMBL document CHEMBL1152978 (J Med Chem, 2009).

What is called IC50 is the concentration that gives 50% inhibition. A higher IC50 goes with a need for much substance. Usually Ki stands for the dissociation constant of the complex between target and ligand, obtained from inhibition or displacement. The low end stands for higher affinity, the high end for lower affinity.

Data set [1] has as its target T1, Muscarinic acetylcholine receptor M2 (Homo sapiens, UniProt P08172).
T1 sequence (P08172 whole entry): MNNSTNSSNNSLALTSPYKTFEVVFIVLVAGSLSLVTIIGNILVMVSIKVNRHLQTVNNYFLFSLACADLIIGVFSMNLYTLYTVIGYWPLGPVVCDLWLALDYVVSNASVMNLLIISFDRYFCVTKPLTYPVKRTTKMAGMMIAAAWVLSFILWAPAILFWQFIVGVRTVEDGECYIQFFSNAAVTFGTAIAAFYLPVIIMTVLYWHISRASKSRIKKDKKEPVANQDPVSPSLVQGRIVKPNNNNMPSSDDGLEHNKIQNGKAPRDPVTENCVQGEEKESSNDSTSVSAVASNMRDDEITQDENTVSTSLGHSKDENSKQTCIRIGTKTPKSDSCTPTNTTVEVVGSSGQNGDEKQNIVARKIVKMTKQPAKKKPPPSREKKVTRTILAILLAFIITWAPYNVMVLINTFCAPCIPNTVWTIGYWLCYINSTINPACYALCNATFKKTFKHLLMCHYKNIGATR
Nature of the data set: Displacement of [3H]NMS from human muscarinic M2 receptor expressed in CHOK1 cells by microplate scintillation counting. The data set is classed as cell-based, CHO-K1. (In general: Loss of bound radioactivity is the signal in a displacement assay; it reports binding, not function.)

Data set [2] addresses T2, Muscarinic acetylcholine receptor M1 (Homo sapiens, UniProt P11229).
T2 sequence (P11229 whole entry): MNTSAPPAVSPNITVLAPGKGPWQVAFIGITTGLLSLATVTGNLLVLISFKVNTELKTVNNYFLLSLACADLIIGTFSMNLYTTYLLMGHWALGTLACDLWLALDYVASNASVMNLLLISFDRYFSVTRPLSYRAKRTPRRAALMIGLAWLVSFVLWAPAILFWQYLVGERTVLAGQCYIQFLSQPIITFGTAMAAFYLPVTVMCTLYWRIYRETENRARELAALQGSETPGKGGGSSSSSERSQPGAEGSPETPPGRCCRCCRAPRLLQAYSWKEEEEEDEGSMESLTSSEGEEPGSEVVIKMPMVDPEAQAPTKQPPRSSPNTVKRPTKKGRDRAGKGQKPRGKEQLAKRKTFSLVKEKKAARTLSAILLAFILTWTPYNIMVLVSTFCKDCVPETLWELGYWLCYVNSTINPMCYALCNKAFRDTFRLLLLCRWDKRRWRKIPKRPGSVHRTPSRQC
Nature of the data set: Displacement of [3H]NMS from human muscarinic M1 receptor expressed in CHOK1 cells by microplate scintillation counting. The data set is classed as cell-based, CHO-K1.

For data set [3], the system named is Mus musculus. Description: Toxicity in Swiss mouse assessed as neurobiological state and occurrence of xerostomia at 30 mg/kg, ip up to 24 hrs. The class given is organism-based. Also noted: dose 30 mg/kg, route intraperitoneal. To be noted: in vivo.
The target in data set [4] is T3, Muscarinic acetylcholine receptor M3 (Homo sapiens, UniProt P20309). Description: Displacement of [3H]NMS from human muscarinic M3 receptor expressed in CHOK1 cells by microplate scintillation counting. The class given is cell-based, CHO-K1.
Data set [5] deals with Cavia porcellus. Nature of the data set: Inhibition of acetylcholine-induced bronchoconstriction in Dunkin-Hartley guinea pig assessed as time taken to recover 50% of maximum inhibitory effect at 3 mg/mL administered as nebulized solution. The class given is functional.
Data set [6] deals with T3, Muscarinic acetylcholine receptor M3.
Description: Binding affinity to muscarinic M3 receptor
A short description of data set [7]: Metabolic stability in human plasma assessed as elimination half life at pH 7.4. The data set is classed as ADME, cell-free. To be noted: read-out: beta t1/2.
Data set [8] concerns Cavia porcellus. Nature of the data set: Inhibition of acetylcholine-induced bronchoconstriction in Dunkin-Hartley guinea pig assessed as time taken to recover 50% of maximum inhibitory effect at 1 mg/mL administered as nebulized solution. The class given is functional.
Data set [9] is described as follows: Chemical stability assessed as half life at pH 7.4 by UV-HPLC analysis. The class given is physicochemical. To be noted: buffer.
Data set [10] has as its target T1, Muscarinic acetylcholine receptor M2. Nature of the data set: Binding affinity to muscarinic M2 receptor.
Data set [11] has as its target T2, Muscarinic acetylcholine receptor M1. Nature of the data set: Binding affinity to muscarinic M1 receptor.
For data set [12], the system named is Mus musculus. Description: Toxicity in Swiss mouse assessed as occurrence of mydriasis at 30 mg/kg, ip up to 24 hrs. The class given is organism-based. Also noted: dose 30 mg/kg, route intraperitoneal. To be noted: in vivo.
The test system of data set [13] is Cavia porcellus. Description: Inhibition of acetylcholine-induced bronchoconstriction in Dunkin-Hartley guinea pig administered as nebulized solution. The class given is functional, organism-based.
In data set [14] the test system is Cavia porcellus. Description: Inhibition of acetylcholine-induced bronchoconstriction in Dunkin-Hartley guinea pig assessed as time taken to recover 50% of maximum inhibitory effect at 1 mg/mL administered as nebulized solution.

T3 sequence (P20309 whole entry): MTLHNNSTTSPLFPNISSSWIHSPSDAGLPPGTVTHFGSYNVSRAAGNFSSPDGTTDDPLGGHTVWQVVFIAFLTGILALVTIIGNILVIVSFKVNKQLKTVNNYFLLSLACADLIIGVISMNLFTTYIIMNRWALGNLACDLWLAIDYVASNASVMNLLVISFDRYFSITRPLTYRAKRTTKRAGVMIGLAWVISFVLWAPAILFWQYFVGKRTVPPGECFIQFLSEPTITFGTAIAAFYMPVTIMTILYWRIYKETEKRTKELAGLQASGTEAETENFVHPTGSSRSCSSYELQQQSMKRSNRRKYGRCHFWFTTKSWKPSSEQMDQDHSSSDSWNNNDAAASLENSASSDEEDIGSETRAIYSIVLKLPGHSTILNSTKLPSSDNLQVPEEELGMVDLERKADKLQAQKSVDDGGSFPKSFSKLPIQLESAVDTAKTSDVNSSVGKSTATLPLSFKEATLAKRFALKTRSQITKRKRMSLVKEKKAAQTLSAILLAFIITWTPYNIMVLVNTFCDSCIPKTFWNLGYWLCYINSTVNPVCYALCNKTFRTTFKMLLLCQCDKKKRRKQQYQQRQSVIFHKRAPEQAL

`O=C(O[C@H]1C[N+]2(CCCOc3ccccc3)CCC1CC2)C1(O)c2ccccc2-c2ccccc21.[Br-]`: the IC50 was 1.08 nM in data set [1], 0.63 nM in data set [2] and 0.71 nM in data set [4]. The Activity result in the data set with Mus musculus [3] is on record as “Non-toxic”. The Time in the data set on Cavia porcellus [5] was greater than 6 h.

Regarding `O=C(O[C@H]1C[N+]2(CCCOc3ccccc3)CCC1CC2)C(c1cccs1)c1cccs1.[Br-]`, the figures for the IC50 in data set [1], in data set [2] and in data set [4] were 0.35 nM, 0.34 nM and 0.37 nM, respectively. Moreover, the Activity entry in the data set on Mus musculus [3] was “Non-toxic”.

As to `O=C(O[C@H]1C[N+]2(CCCOc3ccccc3)CCC1CC2)[C@](O)(c1ccccc1)c1cccs1.[Br-]`, the IC50 in [1] was 0.31 nM; in data set [2] it was 0.38 nM; in data set [4], 0.48 nM. Besides, the Activity entry in the data set with Mus musculus [3] is “Non-toxic”.

For the molecule `O=C(O[C@H]1C[N+]2(CCCOc3ccccc3)CCC1CC2)[C@](O)(c1cccs1)C1CCCC1.[Br-]`, the IC50 was found to be 0.14 nM in data set [1], 0.15 nM in data set [2] and 0.18 nM in data set [4]. In addition, the results for the Ki in data set [6], in [10] and in data set [11] were 0.07 nM, 0.06 nM and 0.09 nM, respectively. Besides, the half-life in [7] and in data set [9] was greater than 1 h throughout. In addition, the Time in the data set with Cavia porcellus [8] and in the data set with Cavia porcellus [5] was greater than 6 h throughout. Moreover, the Activity result is “Non-toxic” in the data set with Mus musculus [3] and “Toxic” with Mus musculus [12].

`CC1(C(=O)O[C@H]2C[N+]3(CCCOc4ccccc4)CCC2CC3)c2ccccc2Oc2ccccc21.[Br-]`: the half-maximal inhibitory concentration (IC50) is 0.27 nM in [1] and 0.28 nM in data set [2]. Further, in the data set with Mus musculus [3], the Activity entry was “Non-toxic”.

`CC(C)[N+]1(C)C2CCC1CC(OC(=O)C(CO)c1ccccc1)C2.O.[Br-]` (stereo unspecified): the Activity entry with Mus musculus [12] is “Toxic”.

On to `O=C(O[C@H]1C[N+]2(CCCOc3ccccc3)CCC1CC2)[C@@](O)(c1ccccc1)c1cccs1.[Br-]`, for which the 50% inhibitory concentration (IC50) in data set [1] was determined as 0.17 nM; in data set [2], 0.16 nM; in data set [4], 0.25 nM. In addition, in the data set with Mus musculus [3], the Activity entry is “Non-toxic”.

Regarding `O=C(O[C@H]1C[N+]2(CCc3ccccc3)CCC1CC2)C1(O)c2ccccc2Oc2ccccc21.[Br-]`, the half-maximal inhibitory concentration (IC50) in [1] came to 0.54 nM; in [2], 0.29 nM; in data set [4] it was 0.28 nM. Besides, in the data set on Cavia porcellus [8], the Time is greater than 6 h. Besides, the Activity entry in the data set on Mus musculus [3] is “Non-toxic”.

In the case of `CC1(C(=O)O[C@H]2C[N+]3(CCCOc4ccccc4)CCC2CC3)c2ccccc2-c2ccccc21.[Br-]`, the IC50 in data set [1] was found to be 2.1 nM; in data set [2], 1.26 nM; in data set [4], 0.96 nM. The Activity entry in the data set on Mus musculus [3] is on record as “Non-toxic”.

`C[N+]1(C)[C@@H]2C[C@@H](OC(=O)C(O)(c3cccs3)c3cccs3)C[C@H]1[C@@H]1O[C@@H]12.O.[Br-]` [TIOTROPIUM BROMIDE] gave a half-maximal inhibitory concentration (IC50) in the data set with Cavia porcellus [13] of 45 µg/mL. Moreover, the Time with Cavia porcellus [8] was greater than 6 h. Further, the Activity result in the data set with Mus musculus [12] is recorded as “Toxic”.

For the molecule `O=C(O[C@H]1C[N+]2(CCCCc3ccccc3)CCC1CC2)C(O)(c1cccs1)c1cccs1.[Br-]`, the half-maximal inhibitory concentration (IC50) in data set [1] was determined as 0.38 nM; in [2], 0.29 nM; in data set [4] it was 0.45 nM. Besides, the Time in the data set on Cavia porcellus [8] and in the data set on Cavia porcellus [5] was 6 h each time. The Activity result in the data set on Mus musculus [3] was “Non-toxic”.

Take `O=C(O[C@H]1C[N+]2(CCCOc3ccccc3)CCC1CC2)C(O)(c1ccccc1)c1ccccc1.[Br-]`: in data set [2], the IC50 came to 0.31 nM. In addition, the Activity entry with Mus musculus [3] was “Non-toxic”. For the same molecule, the Time with Cavia porcellus [5] is greater than 6 h.

On to `O=C(O[C@H]1C[N+]2(CCCOc3ccccc3)CCC1CC2)C(O)(c1cccs1)c1cccs1.[Br-]` [ACLIDINIUM BROMIDE], for which the Time in the data set with Cavia porcellus [14] and with Cavia porcellus [8] was greater than 6 h in each case. The figures for the half-life in data set [7] and in [9] were 0.0367 h and 1 h, respectively. Also, the results for the IC50 (in the data set on Cavia porcellus [13]; in data set [2]) were 140 µg/mL and 0.14 nM, respectively. In addition, affinity in data set [11] was put at a Ki of 0.08 nM. Further, the Activity result in the data set with Mus musculus [3] and in the data set on Mus musculus [12] was “Non-toxic” each time.

For `CC(C(=O)O[C@H]1C[N+]2(CCCOc3ccccc3)CCC1CC2)(c1cccs1)c1cccs1.[Br-]`, the results for the IC50 in [1], in data set [2] and in data set [4] were 0.73 nM, 0.6 nM and 0.59 nM, respectively. Further, the Activity result in the data set with Mus musculus [3] is given as “Non-toxic”.

For the molecule `O=C(O[C@H]1C[N+]2(CCc3ccccc3)CCC1CC2)C1c2ccccc2Oc2ccccc21.[Br-]`, the half-maximal inhibitory concentration (IC50) in [1] was 1.82 nM; in data set [2], 0.44 nM; in data set [4], 0.31 nM. Moreover, in the data set with Cavia porcellus [8], the Time was greater than 6 h. In the data set with Mus musculus [3], the Activity result is “Non-toxic”.

Turning to `O=C(O[C@H]1C[N+]2(CCc3ccccc3)CCC1CC2)C1(O)c2ccccc2-c2ccccc21.[Br-]`, the half-maximal inhibitory concentration (IC50) in data set [1] turned out to be 2.24 nM; in data set [2], 1.12 nM; in data set [4], 1.04 nM. In addition, the Time with Cavia porcellus [8] is greater than 6 h. For the same molecule, the Activity entry with Mus musculus [3] was “Non-toxic”.

In the case of `O=C(O[C@H]1C[N+]2(CCCOc3ccccc3)CCC1CC2)C(O)(c1ccsc1)c1ccsc1.[Br-]`, the figures for the 50% inhibitory concentration (IC50) in data set [1], in data set [2] and in [4] were 0.18 nM, 0.23 nM and 0.24 nM, respectively. Also, the Activity result in the data set with Mus musculus [3] is given as “Non-toxic”.

For the molecule `O=C(O[C@H]1C[N+]2(CCCOc3ccccc3)CCC1CC2)[C@@](O)(c1cccs1)C1CCCC1.[Br-]`, the half-maximal inhibitory concentration (IC50) in [1] is 1.01 nM; in data set [2] it was 0.81 nM; in [4] it was 1.62 nM. Moreover, the Activity entry in the data set with Mus musculus [3] is “Non-toxic”. Besides, the Time with Cavia porcellus [5] is greater than 6 h.

Consider `O=C(O[C@H]1C[N+]2(CCCOc3ccccc3)CCC1CC2)C1(O)c2ccccc2Oc2ccccc21.[Br-]`, for which the figures for the half-maximal inhibitory concentration (IC50) in data set [1], in [2] and in data set [4] were 0.36 nM, 0.23 nM and 1.04 nM, respectively. For the same molecule, the Time in the data set with Cavia porcellus [8] is greater than 6 h. Moreover, in the data set with Mus musculus [3], the Activity entry is listed as “Non-toxic”.
